Measured values as given in US20220127297A1, “Novel Antibacterial 3"-Derivatives Of 4,6-Disubstituted 2,5-Dideoxystreptamine Aminoglycoside Antibiotics” (AGILeBiotics B.V., priority 2018, published 2022).

Legend:
[1] = system: Klebsiella pneumoniae ATCC 43816; test: Murine neutropenic thigh model of infection; assay type: in vivo, male CD-1 mice; settings: for Avg. Log CFU/g thigh: 24 h post infection; for survival rate: first study, vehicle group 50% mortality; for Avg. Log CFU/g: thigh, 24 hours post infection
Experimental: 4.1 Murine Neutropenic Thigh Model of Infection (Kiebsiella Pneumoniae ATCC 43816)
A comparator antibiotic (meropenem; Cat. No. 1392454, USP) was used during both studies.
During the first study ABX5006 and ABX5020 were tested at a dose of 64 mg/kg (group 5 for ABX5006, group 8 for ABX5020), 16 mg/kg (group 4 for ABX5006, group 7 for ABX5020) and of 4 mg/kg (group 3 for ABX5006, group 6 for ABX5020).
During a second study ABX5026 and ABX5039 were tested at a dose of 4 mg/kg (group 5 for ABX5026, group 8 for ABX5039), 1 mg/kg (group 4 for ABX5026, group 7 for ABX5039) and of 0.25 mg/kg (group 3 for ABX5026, group 6 for ABX5039).
Animals were dosed subcutaneously (10 mL/kg) twice with 8 h interval. […] A CFU count below limit of detection (LOD=1.0×10^2 CFU/mL) was substituted with the value 0 in order to perform statistical analysis.
Inoculum preparation for intramuscular infection. The strain was streaked out onto MH agar.

E. coli C1162 = test: MIC determination at Uppsala University; assay type: cell-based; settings: Escherichia coli, APH(3′)-Ia
From the text: (§1) 3.4.1 MIC Determination at Uppsala University (Sweden)
(§2) Tested reference compounds. Amikacin disulfate (Cat. No. A1774, Sigma Aldrich), Apramycin sulfate (Cat. No. A2024, Sigma Aldrich) and Gentamicin sulfate (Cat. No. G1914, Sigma Aldrich).
(§3) Bacterial strains/isolates. All assayed laboratory and clinical strains (P. aeruginosa PA01, A. baumanii ATCC 19606, A. baumanii 195N(a), A. baumanii 48F, E. coli C1162, E. coli C1181, M. morgannii S49 and P. stuartii B8-1) were from the IMI ND4BB ENABLE consortium strain collection. ATCC laboratory strains were acquired directly from the American Type Culture Collection. Clinical strains used were previously published (M Juhas, et al. J. Antimicrob. Chemother., 74 (4), 944-952 (2019); D. Hughes et al., Antimicrob. Agents Chemother., 47 (10), 3222-3232 (2003)) and were resistance genotyped within the ENABLE consortium.
(§4) Culture media and equipment. Water (Thermo Scientific, R05819); Mueller-Hinton II broth (BD Ref. 212322); sterile round-bottom 96-well plates (Thermo Scientific, 262162); Sensititre Nephelometer (ThermoFisher Scientific, V3011); 0.5 McFarland Standard (ThermoFisher Scientific, E1041); sterile polyester film (VWR, 391-1251).
(§5) Compound preparation. MIC assay procedure follows the CLSI M07 standard method (Clinical and Laboratory Standards Institute (CLSI); Methods for dilution antimicrobial susceptibility tests for bacteria that grow aerobically; approved standard—eleventh edition, M07-A10, Vol. 38, No. 2, 2018). Test compounds were received as solids and were dissolved in water to a concentration of 10 mg/mL of active compound. […] This solution was serially diluted in 2-fold steps in the first 10 columns of sterile round-bottom 96-well plates, while the final two columns were filled with Mueller-Hinton II broth without added compound for use as positive and negative growth controls.
(§6) Inoculum preparation. Inoculums were prepared by suspending several colonies freshly streaked culture of test strains in 5 mL of sterile 0.9% NaCl. The cell density of the inoculum solution was assessed and adjusted using a Sensititre Nephelometer and a 0.5 McFarland Standard. The inoculum was diluted 1:100 in Mueller-Hinton II broth and 50 μL of this inoculum solution was added to 50 μL of the test compound solutions yielding a concentration range of 64-0.125 μg/mL. The plates were sealed with sterile polyester film and stationarily incubated at 37° C. for 18 hours.
(§7) MIC determination. The MIC value was determined by visual inspection of bacterial growth within 96-well plates. The lowest concentration completely inhibiting growth was reported as the MIC for each strain and compound combination.

A. baumanii 195N (a) = test: MIC determination at Uppsala University; assay type: cell-based; settings: Acinetobacter baumannii, AAC(3)Ia, ANT(3″)Ia, APH(3″)Ib, APH(3′)VI, APH(6)Id
From the text: as §1, §2, §3, §4, §5, §6, §7

A. baumanii 48F = test: MIC determination at Uppsala University; assay type: cell-based; settings: Acinetobacter baumannii; A. boumanii 48F; ANT(2″)Ia, APH(3″)-Ib, APH(3′)-VIa, APH(6)-Id
From the text: as §1, §2, §3, §4, §5, §6, §7

P. stuartii B8-1 = test: MIC determination at Uppsala University; assay type: cell-based; settings: Providencia stuartii, B81, AAC(3)-Ic, ANT (3″)Ia, APH(3′)-IIa, APH(3′)-IIb, APH(3′)-VI, APH(6)-Ic
From the text: as §1, §2, §3, §4, §5, §6, §7

A. baumanii ATCC 19606 = test: MIC determination at Uppsala University; assay type: cell-based; settings: Acinetobacter baumannii, ATCC19606, AMEs: WT
From the text: as §1, §2, §3, §4, §5, §6, §7

E. coli C1181 = test: MIC determination at Uppsala University; assay type: cell-based; settings: Escherichia coli, ANT(3″)-Ia, APH(3′)-Ia
From the text: as §1, §2, §3, §4, §5, §6, §7

P. aeruginosa PAO1 = test: MIC determination at Uppsala University; assay type: cell-based; settings: Pseudomonas aeruginosa, AMEs: WT
From the text: as §1, §2, §3, §4, §5, §6, §7

M. morgannii S49 = test: MIC determination at Uppsala University; assay type: cell-based; settings: Morganella morganii, AAC(3)-IId, ANT(3″), APH(3″)-Ib, APH(3′)-Ia, APH(6)-Id
From the text: as §1, §2, §3, §4, §5, §6, §7

[2] = Log CFU/g thigh, dose 4 mg/kg SC BID
[3] = Log CFU/g thigh, dose 16 mg/kg SC BID
[4] = Log CFU/g thigh, dose 64 mg/kg SC BID
[5] = dose 0.25 mg/kg, SC, BID, Avg. Log CFU/g thigh vs vehicle
[6] = dose 1 mg/kg, SC, BID, Avg. Log CFU/g thigh vs vehicle
[7] = dose 4 mg/kg, SC, BID, Avg. Log CFU/g thigh vs vehicle

SMILES | Change from vehicle group [1, 2] | Change from vehicle group [1, 3] | Change from vehicle group [1, 4] | Avg. Log CFU/g thigh ([1]; dose 4 mg/kg SC BID) [Log CFU/g] | Avg. Log CFU/g thigh ([1]; dose 16 mg/kg SC BID) [Log CFU/g] | Avg. Log CFU/g thigh ([1]; dose 64 mg/kg SC BID) [Log CFU/g] | survival rate [1] [%] | Change from vehicle group [1, 5] | Avg. Log CFU/g ([1]; dose 0.25 mg/kg, SC, BID) [Log CFU/g] | CFU count reduction in comparison to the vehicle control group ([1]; dose 1 mg/kg SC BID) [log 10] | Change from vehicle group [1, 6] | Avg. Log CFU/g ([1]; dose 1 mg/kg, SC, BID) [Log CFU/g] | MIC90 (E. coli C1162) [µg/mL] | MIC90 (A. baumanii 195N (a)) [µg/mL] | MIC90 (A. baumanii 48F) [µg/mL] | MIC90 (P. stuartii B8-1) [µg/mL] | MIC90 (A. baumanii ATCC 19606) [µg/mL] | MIC90 (E. coli C1181) [µg/mL] | MIC90 (P. aeruginosa PAO1) [µg/mL] | MIC90 (M. morgannii S49) [µg/mL] | also measured
N=C(NCCN)NC1C(O)[C@@H](CO)OC(OC2C(F)[C@H](O[C@H]3OC(CN)[C@@H](O)CC3N)C(N)C[C@H]2NC(=O)[C@@H](O)CCN)[C@@H]1O (stereo partly shown) [ABX5020, Tobra-AHB-F-Gua-2-amino-ethyl] | −8.04 | −8.14 | −9.32 | 1.47 | 1.37 | 0.19 | 100 | – | – | – | – | – | – | – | – | – | – | – | – | – | –
N=C(NC[C@@H]1CCNC1)NC1[C@@H](O)C(OC2[C@@H](F)[C@H](O[C@H]3OC(CN)[C@@H](O)CC3N)C(N)C[C@H]2NC(=O)[C@@H](O)CCN)O[C@H](CO)[C@H]1O (stereo partly drawn) [ABX5039, Tobra-AHB-F-Gua (R) pyrrolidine-3-ylmethyl] | – | – | – | – | – | – | – | 0.70 | 9.08 | > 4 | 4.71 | 5.07 | 1 | 4 | 4 | 2 | 8 | 0.5 | 1 | 1 | Change from vehicle group [1, 7]: 7.55; Avg. Log CFU/g ([1]; dose 4 mg/kg, SC, BID): 2.23 Log CFU/g
N=C(N)NC1C(O)[C@@H](CO)OC(OC2C(F)[C@H](O[C@H]3OC(CN)[C@@H](O)CC3N)C(N)C[C@H]2NC(=O)[C@@H](O)CCN)[C@@H]1O (stereo partly shown) [ABX5006, Tobra-AHB-F-Gua] | −7.05 | −8.36 | −9.13 | 2.47 | 1.15 | 0.38 | 100 | – | – | – | – | – | 1 | 4 | 4 | 4 | 8 | 1 | 1 | 1 | CFU count reduction in comparison to the vehicle control group ([1]; dose 4 mg/kg SC BID): 7 log 10
N=C(NC[C@@H]1CCCN1)NC1[C@@H](O)C(OC2[C@@H](F)[C@H](O[C@H]3OC(CN)[C@@H](O)CC3N)C(N)C[C@H]2NC(=O)[C@@H](O)CCN)O[C@H](CO)[C@H]1O (stereo partly drawn) [ABX5026, Tobra-AHB-F-Gua (S) pyrrolidine-2-yl-methyl] | – | – | – | – | – | – | – | 1.80 | 7.98 | > 6 | 6.44 | 3.34 | 1 | 8 | 4 | 2 | 8 | 0.5 | 1 | 2 | Change from vehicle group [1, 7]: 7.56; Avg. Log CFU/g ([1]; dose 4 mg/kg, SC, BID): 2.22 Log CFU/g
NCC[C@H](O)C(=O)N[C@@H]1C[C@H](N)[C@@H](O[C@H]2O[C@H](CN)[C@@H](O)[C@H](O)[C@H]2O)[C@H](O)[C@H]1O[C@H]1O[C@H](CO)[C@@H](O)[C@H](N)[C@H]1O [Amikacin, amikacin, reference compound] | – | – | – | – | – | – | – | – | – | – | – | – | 4 | > 64 | > 64 | > 64 | 16 | 4 | 4 | 4 | –
